Series [1] relates to SGC-7901. In words: Antiproliferative activity against human SGC-7901 cells assessed as inhibition of cell growth measured after 72 hrs by MTT assay. The class given is functional, cell-based. The conditions noted are these: SGC-7901, 72 h.
Another series deals with A549. In words: Antiproliferative activity against human A549 cells assessed as inhibition of cell growth measured after 72 hrs by MTT assay. The class given is functional, cell-based. The conditions noted are these: A549, 72 h. On the technique in general: Tetrazolium assays rely on reduction of a dye to a coloured formazan, in cell work by metabolically active cells.
A further series deals with HeLa. In words: Antiproliferative activity against human HeLa cells assessed as inhibition of cell growth measured after 72 hrs by MTT assay. The class given is functional, cell-based.
Series [2] has as its system SGC-7901. In words: Cell cycle arrest in human SGC-7901 cells assessed as decrease in G1 cell population at 0.084 uM by propidium iodide staining based flow cytometry. In kind it is functional. The conditions noted are these: time 12-72 hrs, TDE = time-dependent effect. In general terms: A flow cytometer gives signals particle by particle.
In series [3] the test system is SGC-7901. In words: Cell cycle arrest in human SGC-7901 cells assessed as increase in G2/M cell population at 0.084 uM by propidium iodide staining based flow cytometry. The class given is functional. The following applies: time 12-72 hrs, TDE = time-dependent effect.
Series [4] deals with SGC-7901. In words: Cell cycle arrest in human SGC-7901 cells assessed as accumulation at G2/M cell population at 0.084 uM measured after 12 hrs by propidium iodide staining based flow cytometry (reference value: 14.5%). The class given is functional.
Series [5] concerns SGC-7901. In words: Cell cycle arrest in human SGC-7901 cells assessed as increase in sub-G1 cell population at 0.084 uM after 72 hrs by propidium iodide staining based flow cytometry. The class given is functional.
Series [6] is described as follows: (§1) Inhibition of porcine tubulin polymerization measured for 60 mins by fluorescence assay. More on the design: species or system Sus scrofa.
The species entered for a further series is Sus scrofa. Described as §1.
Series [7] relates to SGC-7901. In words: Induction of microtubule disruption in human SGC-7901 cells assessed as change in shape of nucleus at 0.084 uM measured after 24 hrs by DAPI staining based immunofluorescence assay. In kind it is cell-based.
In series [8] the test system is SGC-7901. In words: Induction of microtubule disruption in human SGC-7901 cells assessed as appearance of disorganised microtubule at 0.084 uM measured after 24 hrs by DAPI staining based immunofluorescence assay. The class given is cell-based.
Series [9] relates to SGC-7901. In words: Induction of microtubule disruption in human SGC-7901 cells assessed as shrinkage of microtubule at 0.084 uM measured after 24 hrs by DAPI staining based immunofluorescence assay. The class given is cell-based.
Series [10] in a line: Solubility of compound in water at pH 7.4 by UV-HPLC method. The class given is physicochemical.
The test system of series [11] is SGC-7901. In words: Cell cycle arrest in human SGC-7901 cells assessed as increase in G2/M cell population at 0.023 uM by propidium iodide staining based flow cytometry. The class given is functional. The conditions noted are these: time 12-72 hrs, TDE = time-dependent effect.
The subject of series [12] is SGC-7901. In words: Cell cycle arrest in human SGC-7901 cells assessed as decrease in G1 cell population at 0.023 uM by propidium iodide staining based flow cytometry. The class given is functional. The conditions noted are these: time 12-72 hrs, TDE = time-dependent effect.
For series [13], the system named is SGC-7901. In words: Cell cycle arrest in human SGC-7901 cells assessed as increase in sub-G1 cell population at 0.023 uM after 72 hrs by propidium iodide staining based flow cytometry. In kind it is functional.

≈ marks a conversion by molar mass, not a printed value. Calls of active or inactive are those of the source. The calls are words filed in the database; no cut-off is given here.

The term IC50 denotes the concentration needed to halve the response being measured. For orientation: solubility means the concentration that dissolves in the medium under given conditions.

Take `COc1cc(C(=O)c2nn(-c3ccccc3)nc2N2CCOCC2)cc(OC)c1OC`: the IC50 in the series with SGC-7901 [1] was 5860 nM; with A549, 488 nM; with HeLa, 891 nM.

As to `COc1cc(C(=O)c2nn(-c3ccccc3)nc2N2CCCCC2)cc(OC)c1OC`, the IC50 in the series on SGC-7901 [1] is 3720 nM; in the series on A549, 6450 nM; in the series with HeLa, 3620 nM.

Regarding `COc1cc(C(=O)c2nn(-c3ccc(Br)cc3)nc2N2CCN(C(C)=O)CC2)cc(OC)c1OC`, the figures for the IC50 with SGC-7901 [1], with A549 and in the series on HeLa were 861 nM, 9060 nM and more than 30000 nM, respectively.

`COc1cc(C(=O)c2nn(-c3ccccc3)nc2N2CCN(C(C)=O)CC2)cc(OC)c1OC`: the IC50 in the series with SGC-7901 [1] turned out to be 84 nM; in the series on A549, 133 nM; in the series on HeLa, 221 nM; in series [6], 28300 nM. Besides, the Activity result in the series with SGC-7901 [2] is “Tde”; in the series with SGC-7901 [3] it was “Tde”; with SGC-7901 [4] it was 53.9%. Moreover, the result in the series with SGC-7901 [5], in the series with SGC-7901 [7], with SGC-7901 [8] and with SGC-7901 [9] was Active. The inhibition result in the series filed under Sus scrofa was “Dose-dependent effect”. In addition, the concentration in solution in [10] (solubility) was 2.7 µg/mL (≈ 5.8 µM).

`COc1cc(C(=O)c2nn(-c3ccccc3F)nc2N2CCN(C(C)=O)CC2)cc(OC)c1OC`: the IC50 with SGC-7901 [1] was found to be 171 nM; in the series on A549, 4650 nM; in the series on HeLa, 513 nM.

In the case of `COc1cc(C(=O)c2nn(-c3ccccc3C)nc2N2CCN(C(C)=O)CC2)cc(OC)c1OC`, the 50% inhibitory concentration (IC50) in the series with SGC-7901 [1] was determined as 2380 nM; with A549 it was 8350 nM; in the series on HeLa, 2690 nM.

For `COc1ccc(-n2nc(C(=O)c3cc(OC)c(OC)c(OC)c3)c(N3CCN(C(C)=O)CC3)n2)cc1N`, the IC50 in the series with SGC-7901 [1] turned out to be 550 nM; with A549, 648 nM; with HeLa it was 1360 nM.

The molecule `COc1ccc(/C=C\c2cc(OC)c(OC)c(OC)c2)cc1O` [COMBRETASTATIN A4] registered a solubility in [10] of 0.1 µg/mL (≈ 0.316 µM).

Turning to `COc1cc(C(=O)c2nn(-c3ccccc3)nc2N2CCN(C(C)C)CC2)cc(OC)c1OC`, the IC50 in the series with SGC-7901 [1] stood at 2680 nM; in the series on A549 it was 7300 nM; in the series on HeLa, 6420 nM.

As for `COc1ccc(-n2nc(C(=O)c3cc(OC)c(OC)c(OC)c3)c(N3CCN(C(C)=O)CC3)n2)cc1`, the IC50 with SGC-7901 [1] is 1150 nM; in the series with A549 it was 1100 nM; in the series with HeLa, 208 nM.

Consider `COc1cc(C(=O)c2nn(-c3ccccc3)nc2N2CCN(C)CC2)cc(OC)c1OC`, for which the values for the IC50 in the series on SGC-7901 [1], with A549 and in the series with HeLa were 6580 nM, 622 nM and 135 nM, respectively.

For `COc1cc(C(=O)c2nn(-c3cccc(F)c3)nc2N2CCN(C(C)=O)CC2)cc(OC)c1OC`, the IC50 in the series on SGC-7901 [1] is 1690 nM; with A549, more than 30000 nM; with HeLa, 6200 nM.

For `COc1cc(C(=O)c2cnn(-c3ccccc3)n2)cc(OC)c1OC`, the IC50 in the series on SGC-7901 [1] was determined as 870 nM; in the series on A549, 7100 nM; in the series with HeLa, 11400 nM. In series [10], this molecule showed a solubility of less than 0.5 µg/mL.

For the molecule `COc1cc(C(=O)c2nn(-c3ccc([N+](=O)[O-])cc3)nc2N2CCN(C(C)=O)CC2)cc(OC)c1OC`, the IC50 amounted to 417 nM with SGC-7901 [1], 684 nM with A549 and 212 nM in the series with HeLa.

With `COc1cc(C(=O)c2nn(-c3ccccc3)nc2N2CCNCC2)cc(OC)c1OC`, the IC50 with SGC-7901 [1] worked out at 1240 nM; with A549, 4310 nM; in the series with HeLa it was 342 nM. Moreover, the solubility in series [10] was determined as 2.2 µg/mL (≈ 5.2 µM).

As for `COc1cc(C(=O)c2nn(-c3ccccc3)nc2N2CCN(C(=O)OC(C)(C)C)CC2)cc(OC)c1OC`, the concentration for half-maximal inhibition (IC50) is 11300 nM with SGC-7901 [1], more than 30000 nM in the series on A549 and more than 30000 nM in the series on HeLa.

Turning to `COc1ccc(-n2nc(C(=O)c3cc(OC)c(OC)c(OC)c3)c(N3CCN(C(C)=O)CC3)n2)cc1[N+](=O)[O-]`, the IC50 with SGC-7901 [1], with A549 and with HeLa was more than 30000 nM throughout.

Take `COc1cc(C(=O)c2nn(-c3ccc(F)cc3)nc2N2CCN(C(C)=O)CC2)cc(OC)c1OC`: the IC50 is 344 nM in the series on SGC-7901 [1], more than 30000 nM in the series on A549 and 3480 nM in the series with HeLa.

For `COc1cc(C(=O)c2nn(-c3ccc(Cl)cc3)nc2N2CCN(C(C)=O)CC2)cc(OC)c1OC`, the results for the IC50 in the series on SGC-7901 [1], in the series on A549 and in the series on HeLa were 406 nM, 628 nM and 1080 nM, respectively.

As for `COc1cc(C(=O)c2nn(-c3cccc(C)c3)nc2N2CCN(C(C)=O)CC2)cc(OC)c1OC`, the IC50 in the series on SGC-7901 [1], in the series on A549 and in the series with HeLa was more than 30000 nM each time.

On to `COc1cc(C(=O)c2csc(-c3ccccc3)n2)cc(OC)c1OC`, for which the values for the IC50 in the series with A549 and with HeLa were 34 nM and 37 nM, respectively. Also, the Activity entry in the series with SGC-7901 [11] and with SGC-7901 [12] was “Tde” each time. For the same molecule, the result in the series with SGC-7901 [13] was Active. The solubility in series [10] is less than 0.5 µg/mL.

Regarding `COc1cc(C(=O)c2nn(-c3cc(C)ccc3C)nc2N2CCN(C(C)=O)CC2)cc(OC)c1OC`, the IC50 with SGC-7901 [1], in the series on A549 and in the series with HeLa was more than 30000 nM throughout.

In the case of `COc1cc(C(=O)c2nn(-c3ccc(C)cc3)nc2N2CCN(C(C)=O)CC2)cc(OC)c1OC`, the results for the IC50 with SGC-7901 [1], in the series on A549 and in the series on HeLa were 426 nM, 764 nM and 298 nM, respectively.

`COc1cc(C(=O)c2nn(-c3ccc(C)c(C)c3)nc2N2CCN(C(C)=O)CC2)cc(OC)c1OC`: the IC50 turned out to be 4830 nM with SGC-7901 [1], 2610 nM in the series with A549 and 3920 nM with HeLa.

Values taken from ChEMBL document CHEMBL4715834, “Design, synthesis and bio-evaluation of novel 2-aryl-4-(3,4,5-trimethoxy-benzoyl)-5-substituted-1,2,3-triazoles as the tubulin polymerization inhibitors” (Eur J Med Chem, 2020).
